We go through 24 molecules from patent publication US20260256789A1, “METHODS FOR TREATMENT OF CANCER” (Frontier Medicines Corporation, priority 2022, published 2026).

SMILES strings stand for the structures. Bounds are passed on as bounds.

The target of this test is T1, KRAS G12C (GMPPNP-loaded) and cRAF Ras-binding domain (Homo sapiens, UniProt P01116, C118S/C51S/C80L/G12C).
T1 construct: truncated version comprising amino acids 1-169
T1 sequence (P01116 1-169 isoform P01116-2 G12C/C51S/C80L/C118S): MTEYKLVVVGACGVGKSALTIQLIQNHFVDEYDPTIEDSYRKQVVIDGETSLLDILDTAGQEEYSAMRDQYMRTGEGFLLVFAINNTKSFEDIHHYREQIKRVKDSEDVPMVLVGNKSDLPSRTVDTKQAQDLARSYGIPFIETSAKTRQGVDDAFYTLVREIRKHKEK
Put plainly: Inhibition of KRAS G12C and cRAF binding (AlphaScreen). Particulars: KRAS G12C preloaded with GTP analogue GMPPNP, 2 hours preincubation. The gist of the method:
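AlphaScreen used biotin-AviTag KRAS G12C (Cys-light, aa 1-169; 0.5 nM), GMPPNP-loaded, preincubated 2 h with compound (top 50 μM, 1:3, 10 points, 2% DMSO) in pH 7.4 Hepes buffer with 10 μM GMPPNP. GST-cRAF RBD (aa 50-131; 0.75 nM) plus beads were then added for 60-90 min at room temperature, and IC50 came from a 4-parameter fit.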
(In general: Alpha assays give light when donor and acceptor beads are brought close together.)
For `C=CC(=O)N1CC[C@@H](N(C)c2nc(OC[C@@]34CCCN3C[C@H](F)C4)nc3c(F)c(-c4nc(N)cc(C)c4C(F)(F)F)ncc23)C1` [Example 72, 1-((R)-3-((7-(6-amino-4-methyl-3-(trifluoromethyl)pyridin-2-yl)-8-fluoro-2-(((2R,7aS)-2-fluorotetrahydro-1H-pyrrolizin-7a(5H)-yl)methoxy)pyrido[4,3-d]pyrimidin-4-yl)(methyl)amino)pyrrolidin-1-yl)prop-2-en-1-one], the IC50 (in general, the concentration needed to halve the response being measured) was 10 to 100 nM. As to `C=CC(=O)N1CC(CN(C)c2nc(OC[C@@]34CCCN3C[C@H](F)C4)nc3c(F)c(-c4nc(N)cc5cccc(Cl)c45)ncc23)C1` [Example 73, 1-(3-(((7-(3-amino-8-chloroisoquinolin-1-yl)-8-fluoro-2-(((2R,7aS)-2-fluorohexahydro-1H-pyrrolizin-7a-yl)methoxy)pyrido[4,3-d]pyrimidin-4-yl)(methyl)amino)methyl)azetidin-1-yl)prop-2-en-1-one], the IC50 was 10 to 100 nM. `C=CC(=O)N1CC[C@@H](N(C)c2nc(OC[C@@]34CCCN3C[C@H](F)C4)nc3c(F)c(-c4nc(N)cc5cccc(Cl)c45)ncc23)C1` [Example 74, 1-((R)-3-((7-(3-amino-8-chloroisoquinolin-1-yl)-8-fluoro-2-(((2R,7aS)-2-fluorohexahydro-1H-pyrrolizin-7a-yl)methoxy)pyrido[4,3-d]pyrimidin-4-yl)(methyl)amino)pyrrolidin-1-yl)prop-2-en-1-one] registered an IC50 of 10 to 100 nM. Molecule `C=CC(=O)N1CC[C@@H](N(C)c2nc(OCC34CCCN3CCC4)nc3c(F)c(-c4nc(N)cc5cccc(F)c45)ncc23)C1` [Example 75, (R)-1-(3-((7-(3-amino-8-fluoroisoquinolin-1-yl)-8-fluoro-2-((hexahydro-1H-pyrrolizin-7a-yl)methoxy)pyrido[4,3-d]pyrimidin-4-yl)(methyl)amino)pyrrolidin-1-yl)prop-2-en-1-one] had an IC50 of 100 to 500 nM.

Regarding `C=CC(=O)N1CC[C@@H](N(C)c2nc(OC[C@@]34CCCN3C[C@H](F)C4)nc3c(F)c(-c4nc(N)cc5cccc(F)c45)ncc23)C1` [Example 76, 1-((R)-3-((7-(3-amino-8-fluoroisoquinolin-1-yl)-8-fluoro-2-(((2R,7aS)-2-fluorohexahydro-1H-pyrrolizin-7a-yl)methoxy)pyrido[4,3-d]pyrimidin-4-yl)(methyl)amino)pyrrolidin-1-yl)prop-2-en-1-one], the IC50 was in the range of 10 to 100 nM.

Turning to `C=CC(=O)N1CC[C@@H](N(C)c2nc(OCC34CCCN3CCC4)nc3c(F)c(-c4nc(N)cc(C)c4C(F)(F)F)ncc23)C1` [Example 79, (R)-1-(3-((7-(6-amino-4-methyl-3-(trifluoromethyl)pyridin-2-yl)-8-fluoro-2-((tetrahydro-1H-pyrrolizin-7a(5H)-yl)methoxy)pyrido[4,3-d]pyrimidin-4-yl)(methyl)amino)pyrrolidin-1-yl)prop-2-en-1-one], the IC50 lay in the range of 10 to 100 nM. Consider `CN(CC1CN(C(=O)/C=C/CN2CCOCC2)C1)c1nc(OC[C@@]23CCCN2C[C@H](F)C3)nc2c(F)c(-c3nc(N)cc4cccc(F)c34)ncc12` [Example 80, (E)-1-(3-(((7-(3-amino-8-fluoroisoquinolin-1-yl)-8-fluoro-2-(((2R,7aS)-2-fluorotetrahydro-1H-pyrrolizin-7a(5H)-yl)methoxy)pyrido[4,3-d]pyrimidin-4-yl)(methyl)amino)methyl)azetidin-1-yl)-4-morpholinobut-2-en-1-one], for which the IC50 was at least 500 nM. As for `Cc1noc(/C=C/C(=O)N2CC[C@@H](N(C)c3nc(OC[C@@]45CCCN4C[C@H](F)C5)nc4c3C[C@H](C)[C@@H](c3nc(N)cc(C)c3C(F)(F)F)C4)C2)n1` [Example 81, (E)-1-((R)-3-(((6S,7S)-7-(6-amino-4-methyl-3-(trifluoromethyl)pyridin-2-yl)-2-(((2R,7aS)-2-fluorotetrahydro-1H-pyrrolizin-7a(5H)-yl)methoxy)-6-methyl-5,6,7,8-tetrahydroquinazolin-4-yl)(methyl)amino)pyrrolidin-1-yl)-3-(3-methyl-1,2,4-oxadiazol-5-yl)prop-2-en-1-one], the figure is 100 to 500 nM; as for `Cc1cc(N)nc(-c2ncc3c(N(C)[C@@H]4CCN(C(=O)/C=C/[C@@H]5CCN5C)C4)nc(OC[C@@]45CCCN4C[C@H](F)C5)nc3c2F)c1C(F)(F)F` [Example 83], under 10 nM; as for `CN(CC1CN(C(=O)/C=C/CN2CCOCC2)C1)c1nc(OC[C@@]23CCCN2C[C@H](F)C3)nc2c(F)c(-c3nc(N)cc4cccc(Cl)c34)ncc12` [Example 84, (E)-1-(3-(((7-(3-amino-8-chloroisoquinolin-1-yl)-8-fluoro-2-(((2R,7aS)-2-fluorotetrahydro-1H-pyrrolizin-7a(5H)-yl)methoxy)pyrido[4,3-d]pyrimidin-4-yl)(methyl)amino)methyl)azetidin-1-yl)-4-morpholinobut-2-en-1-one], 10 to 100 nM. As to `Cc1cc(N)nc(-c2ncc3c(N(C)CC4CN(C(=O)/C=C/c5nc(C(C)C)no5)C4)nc(OC[C@@]45CCCN4C[C@H](F)C5)nc3c2F)c1C` [Example 85], the IC50 was 100 to 500 nM. In turn, `Cc1ccc(N)nc1-c1ncc2c(N(C)[C@@H]3CCN(C(=O)/C=C/c4nc(C(C)C)no4)C3)nc(OC[C@@]34CCCN3C[C@H](F)C4)nc2c1F` [Example 86] yielded an IC50 of 10 to 100 nM. `Cc1nsc(/C=C/C(=O)N2CC[C@@H](N(C)c3nc(OC[C@@]45CCCN4C[C@H](F)C5)nc4c3C[C@H](C)[C@@H](c3nc(N)cc(C)c3C(F)(F)F)C4)C2)n1` [Example 88, (E)-1-((R)-3-(((6S,7S)-7-(6-amino-4-methyl-3-(trifluoromethyl)pyridin-2-yl)-2-(((2R,7aS)-2-fluorotetrahydro-1H-pyrrolizin-7a(5H)-yl)methoxy)-6-methyl-5,6,7,8-tetrahydroquinazolin-4-yl)(methyl)amino)pyrrolidin-1-yl)-3-(3-methyl-1,2,4-thiadiazol-5-yl)prop-2-en-1-one] came in with an IC50 of at least 500 nM. Next, `Cc1cc(N)nc([C@@H]2Cc3nc(OC[C@@]45CCCN4C[C@H](F)C5)nc(N(C)[C@@H]4CCN(C(=O)/C=C/c5nc(C(C)(C)O)no5)C4)c3C[C@H]2C)c1C(F)(F)F` [Example 89, (E)-1-((R)-3-(((6R,7R)-7-(6-amino-4-methyl-3-(trifluoromethyl)pyridin-2-yl)-2-(((2R,7aS)-2-fluorotetrahydro-1H-pyrrolizin-7a(5H)-yl)methoxy)-6-methyl-5,6,7,8-tetrahydroquinazolin-4-yl)(methyl)amino)pyrrolidin-1-yl)-3-(3-(2-hydroxypropan-2-yl)-1,2,4-oxadiazol-5-yl)prop-2-en-1-one]: under 10 nM; `CN1CC[C@@H]1/C=C/C(=O)N1CC[C@@H](N(C)c2nc(OC[C@@]34CCCN3C[C@H](F)C4)nc3c(F)c(-c4nc(N)cc5cccc(F)c45)ncc23)C1` [Example 90]: under 10 nM; `CN(C)CC#CC(=O)N1CC[C@@H](N(C)c2nc(OC[C@@]34CCCN3C[C@H](F)C4)nc3c(F)c(-c4nc(N)cc5cccc(Cl)c45)ncc23)C1` [Example 91]: 10 to 100 nM. As for `CN(c1nc(OC[C@@]23CCCN2C[C@H](F)C3)nc2c(F)c(-c3nc(N)cc4cccc(F)c34)ncc12)[C@@H]1CCN(C(=O)/C=C/c2nc(C(C)(F)F)no2)C1` [Example 92], the figure is under 10 nM; as for `CN(c1nc(OC[C@@]23CCCN2C[C@H](F)C3)nc2c(F)c(-c3nc(N)cc4cccc(Cl)c34)ncc12)[C@@H]1CCN(C(=O)/C=C/c2nc(C(C)(C)O)no2)C1` [Example 93], under 10 nM; as for `Cc1cc(N)nc([C@H]2Cc3nc(OC[C@@]45CCCN4C[C@H](F)C5)nc(N(C)[C@@H]4CCN(C(=O)/C=C/c5nc(C(C)(C)O)no5)C4)c3C[C@@H]2C)c1C(F)(F)F` [Example 94, (E)-1-((R)-3-(((6S,7S)-7-(6-amino-4-methyl-3-(trifluoromethyl)pyridin-2-yl)-2-(((2R,7aS)-2-fluorotetrahydro-1H-pyrrolizin-7a(5H)-yl)methoxy)-6-methyl-5,6,7,8-tetrahydroquinazolin-4-yl)(methyl)amino)pyrrolidin-1-yl)-3-(3-(2-hydroxypropan-2-yl)-1,2,4-oxadiazol-5-yl)prop-2-en-1-one], at least 500 nM. Regarding `Cc1noc(/C=C/C(=O)N2CC[C@@H](N(C)c3nc(OC[C@@]45CCCN4C[C@H](F)C5)nc4c3CCN(c3nc(N)cc(C)c3C(F)(F)F)C4)C2)n1` [Example 95, (E)-1-((R)-3-((7-(6-amino-4-methyl-3-(trifluoromethyl)pyridin-2-yl)-2-(((2R,7aS)-2-fluorotetrahydro-1H-pyrrolizin-7a(5H)-yl)methoxy)-5,6,7,8-tetrahydropyrido[3,4-d]pyrimidin-4-yl)(methyl)amino)pyrrolidin-1-yl)-3-(3-methyl-1,2,4-oxadiazol-5-yl)prop-2-en-1-one], the IC50 was at least 500 nM. Turning to `C=CC(=O)N1CC[C@@H](N(C)c2nc(OC[C@@]34CCCN3C[C@H](F)C4)nc3c(F)c(-c4nc(N)ccc4F)ncc23)C1` [Example 96, 1-((R)-3-((7-(6-amino-3-fluoropyridin-2-yl)-8-fluoro-2-(((2R,7aS)-2-fluorotetrahydro-1H-pyrrolizin-7a(5H)-yl)methoxy)pyrido[4,3-d]pyrimidin-4-yl)(methyl)amino)pyrrolidin-1-yl)prop-2-en-1-one], the IC50 is at least 500 nM. `Cc1cc(N)nc(-c2ncc3c(N(C)CC4CN(C(=O)/C=C/c5nc(C(C)(C)O)no5)C4)nc(OC[C@@]45CCCN4C[C@H](F)C5)nc3c2F)c1C(F)(F)F` [Example 97] had an IC50 of 10 to 100 nM.

The molecule `C=CC(=O)N1CC[C@@H](N(C)c2nc(OCC34CCCN3CCC4)nc3c2CC(C)C(c2nc(N)cc(C)c2C(F)(F)F)C3)C1` (stereo partly drawn) [Example 98] gave an IC50 of 100 to 500 nM.

Consider `CN1CC[C@@H]1/C=C/C(=O)N1CC[C@@H](N(C)c2nc(OC[C@@]34CCCN3C[C@H](F)C4)nc3c(F)c(-c4nc(N)cc5cccc(Cl)c45)ncc23)C1` [Example 99], for which the IC50 is under 10 nM.
